Where two headings read alike, the source gives them in different places.
Molecular target: T1, WIZ (Homo sapiens, UniProt O95785+Q96SW2)
T1 construct: expressed in transfected cells
Test: Quantification of WIZ protein levels in HiBit tag fusion protein assay (293T cells)
Type: cell-based
Design: Dmax: dose or concentration left out as unconfirmed
Settings: for remaining activity at 25 µM / Dmax at 25 µM / Dmax: HEK-293T; for remaining activity at 25 µM: read-out: WIZ Amax; for Dmax at 25 µM / % degradation of WIZ (100 − Amax): 100 − Amax, at 25 uM; for Dmax at 25 µM / Dmax: read-out: % degradation of WIZ (100 − Amax); for DC50: WIZ HiBit assay in 293T cells, about 18 hours, 10-point 5-fold dilution, top 25 μM, read-out: WIZ AC50
Method: The HiBit system from Promega was used to develop high-throughput and quantitative assays to measure changes in WIZ protein levels in response to compounds. The HiBit tag was derived from a split Nanoluciferase and has the following protein sequence: […] (SEQ ID NO: 1). The complementary fragment of Nanoluciferase (known as LgBit, from Promega), was added to the HiBit tag to form an active Nanoluciferase enzyme whose activity can be precisely measured. In this way, the levels of a fusion protein with the HiBit tag can be quantified in cell lysates.
Lentiviral vectors, based on the Invitrogen™ pLenti6.2/V5 DEST backbone were constructed that places the HiBit tag upstream of WIZ and expressed the fusion protein from an HSVTK promotor.
To ensure moderate and consistent expression of the HiBit-WIZ fusion protein across all cells in the population, stable cell lines were constructed from cells harboring a single copy of the construct. Lentivirus packaged with the constructs were made using the ViraPowerTMkit from Invitrogen™. 293T cells from ATCC (Catalog number: CRL-3216), were infected with the virus at low multiplicity of infection and selected by 5 μg/mL blasticidin in culture media for 2 weeks.
The levels of HiBit-WIZ tagged fusion proteins in compound-treated cell lines were measured as follows:
On day 1, cells were diluted to 1.0×10^6 cells/ml in normal growth medium. 20 μL of cell suspension were plated in each well of a solid white 384-well plate. Plates were incubated overnight in a 37° C. and 5% CO2 humidified tissue culture incubator.
On day 2, serial dilutions of compounds were made in 384-well plates. Compound plates were set up with DMSO in columns 1, 2, 23, 24, and 10-point compound dilution series in column 3-12 and column 13-22. 10 mM stock solution of compound were placed into column 3 or 13 and a 1:5 serial dilution was carried out until there was a 10-point dilution series per compound. 50 nL of diluted compounds were transferred into the plated cells by Echo® (Labcyte) acoustic transfer. The highest concentration of compound was 25 μM. Plates were incubated overnight (about 18 hours) in a 37° C. and 5% CO2 humidified tissue culture incubator.
On day 3, plates were removed from the incubator and allowed to equilibrate at room temperature for 60 minutes. HiBit substrate (Nano-Glo® HiBit Lytic Detection System, Promega Catalogue number: N3050) was added as described by the manufacturers protocols. Plates were incubated at room temperature for 30 minutes and luminescence was read using an EnVision® reader (PerkinElmer®). Data was analyzed and visualized using the Spotfire® software package.
WIZ Amax reflects the DMSO-normalized, curve-fitted percentage of WIZ-HiBit remaining at 25 uM. It was calculated by normalizing DMSO controls to 100%, parametric curve fitting of the dose response data (10-point, 5-fold), followed by calculation of response at 25 uM using the fitted equation.

[1] = DMSO-normalized, curve-fitted percentage of WIZ-HiBit remaining at 25 uM

T1 sequence (O95785 whole entry): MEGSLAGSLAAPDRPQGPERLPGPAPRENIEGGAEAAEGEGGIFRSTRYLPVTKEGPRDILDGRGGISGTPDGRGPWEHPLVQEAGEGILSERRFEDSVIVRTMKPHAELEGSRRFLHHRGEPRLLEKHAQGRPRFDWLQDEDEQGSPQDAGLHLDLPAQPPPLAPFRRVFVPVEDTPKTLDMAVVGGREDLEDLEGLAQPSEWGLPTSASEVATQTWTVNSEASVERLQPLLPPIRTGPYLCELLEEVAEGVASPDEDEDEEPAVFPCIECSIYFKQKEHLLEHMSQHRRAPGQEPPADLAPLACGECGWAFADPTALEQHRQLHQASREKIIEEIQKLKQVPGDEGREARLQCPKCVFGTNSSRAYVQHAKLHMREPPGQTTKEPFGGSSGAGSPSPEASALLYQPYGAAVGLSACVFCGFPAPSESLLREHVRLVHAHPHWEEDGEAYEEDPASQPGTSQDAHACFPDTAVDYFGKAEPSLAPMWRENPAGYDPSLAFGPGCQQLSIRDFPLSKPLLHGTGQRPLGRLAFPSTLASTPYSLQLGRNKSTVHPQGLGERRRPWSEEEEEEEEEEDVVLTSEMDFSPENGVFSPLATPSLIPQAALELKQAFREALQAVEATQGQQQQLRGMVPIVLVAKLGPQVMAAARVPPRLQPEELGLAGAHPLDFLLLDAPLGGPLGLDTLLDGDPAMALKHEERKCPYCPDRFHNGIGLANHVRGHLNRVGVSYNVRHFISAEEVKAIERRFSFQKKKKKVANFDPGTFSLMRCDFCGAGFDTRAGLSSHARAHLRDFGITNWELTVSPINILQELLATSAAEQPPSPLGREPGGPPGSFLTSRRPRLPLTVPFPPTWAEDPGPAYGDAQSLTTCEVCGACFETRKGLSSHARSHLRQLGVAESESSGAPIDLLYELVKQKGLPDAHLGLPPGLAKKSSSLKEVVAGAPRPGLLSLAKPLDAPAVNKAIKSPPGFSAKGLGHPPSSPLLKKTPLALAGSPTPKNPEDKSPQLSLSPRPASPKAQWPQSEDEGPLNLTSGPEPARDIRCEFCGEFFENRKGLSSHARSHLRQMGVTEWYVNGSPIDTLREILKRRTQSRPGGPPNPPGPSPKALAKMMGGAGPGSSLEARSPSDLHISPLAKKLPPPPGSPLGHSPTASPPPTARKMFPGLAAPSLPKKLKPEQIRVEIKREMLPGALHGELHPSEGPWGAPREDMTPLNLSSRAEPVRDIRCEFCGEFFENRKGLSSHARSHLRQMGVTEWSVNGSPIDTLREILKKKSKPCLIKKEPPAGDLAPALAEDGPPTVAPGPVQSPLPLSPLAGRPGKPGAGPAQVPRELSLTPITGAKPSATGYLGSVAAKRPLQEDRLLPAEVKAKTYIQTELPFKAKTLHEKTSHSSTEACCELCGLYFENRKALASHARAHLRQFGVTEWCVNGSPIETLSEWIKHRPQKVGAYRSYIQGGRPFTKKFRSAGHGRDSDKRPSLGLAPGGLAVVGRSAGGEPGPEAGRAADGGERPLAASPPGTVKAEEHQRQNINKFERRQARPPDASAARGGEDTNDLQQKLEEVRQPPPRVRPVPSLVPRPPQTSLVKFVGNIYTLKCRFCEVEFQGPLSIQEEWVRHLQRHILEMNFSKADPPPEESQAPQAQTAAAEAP
T1 sequence (Q96SW2 whole entry): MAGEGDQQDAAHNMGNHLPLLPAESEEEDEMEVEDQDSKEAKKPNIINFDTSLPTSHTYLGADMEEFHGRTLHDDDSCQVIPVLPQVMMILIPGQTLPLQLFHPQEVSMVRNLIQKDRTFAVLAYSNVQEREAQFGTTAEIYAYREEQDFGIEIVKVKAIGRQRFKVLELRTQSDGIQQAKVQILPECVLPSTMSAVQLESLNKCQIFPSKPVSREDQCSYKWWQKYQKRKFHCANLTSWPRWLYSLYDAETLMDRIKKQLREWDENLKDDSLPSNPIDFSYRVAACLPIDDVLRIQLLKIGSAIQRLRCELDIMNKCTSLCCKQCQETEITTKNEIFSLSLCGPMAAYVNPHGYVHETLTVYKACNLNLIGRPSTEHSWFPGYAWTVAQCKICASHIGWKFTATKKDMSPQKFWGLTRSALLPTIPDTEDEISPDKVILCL
T1 sequence (Q16531 whole entry partner): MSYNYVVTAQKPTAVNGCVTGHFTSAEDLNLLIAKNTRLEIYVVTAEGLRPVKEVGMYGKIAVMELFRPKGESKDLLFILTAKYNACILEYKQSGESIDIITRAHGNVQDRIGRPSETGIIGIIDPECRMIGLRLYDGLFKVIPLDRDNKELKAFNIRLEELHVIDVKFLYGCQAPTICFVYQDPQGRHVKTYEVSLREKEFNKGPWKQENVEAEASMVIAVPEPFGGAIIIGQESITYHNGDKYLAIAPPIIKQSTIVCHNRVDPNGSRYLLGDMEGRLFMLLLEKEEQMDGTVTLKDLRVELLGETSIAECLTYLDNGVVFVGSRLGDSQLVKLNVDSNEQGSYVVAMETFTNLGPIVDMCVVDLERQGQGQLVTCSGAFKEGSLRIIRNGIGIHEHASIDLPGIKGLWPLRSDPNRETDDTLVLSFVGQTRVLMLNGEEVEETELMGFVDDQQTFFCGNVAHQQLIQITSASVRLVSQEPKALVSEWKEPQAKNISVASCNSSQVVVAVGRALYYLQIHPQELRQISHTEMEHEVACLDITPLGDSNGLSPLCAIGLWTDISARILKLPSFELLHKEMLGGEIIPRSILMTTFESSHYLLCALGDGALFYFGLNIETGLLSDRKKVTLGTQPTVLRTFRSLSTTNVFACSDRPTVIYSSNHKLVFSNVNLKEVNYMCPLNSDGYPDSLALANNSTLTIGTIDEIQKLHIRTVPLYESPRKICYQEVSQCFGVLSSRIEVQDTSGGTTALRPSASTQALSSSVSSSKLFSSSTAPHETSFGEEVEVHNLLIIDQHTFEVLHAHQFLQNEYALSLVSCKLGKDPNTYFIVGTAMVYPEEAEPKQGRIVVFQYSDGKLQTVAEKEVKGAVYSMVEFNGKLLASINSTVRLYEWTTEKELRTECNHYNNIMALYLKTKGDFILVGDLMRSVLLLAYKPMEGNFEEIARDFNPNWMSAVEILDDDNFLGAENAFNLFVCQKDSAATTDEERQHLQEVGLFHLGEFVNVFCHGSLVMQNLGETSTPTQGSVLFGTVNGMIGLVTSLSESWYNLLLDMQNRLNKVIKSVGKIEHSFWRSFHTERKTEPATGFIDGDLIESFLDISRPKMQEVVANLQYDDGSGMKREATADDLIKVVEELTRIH

| remaining activity at 25 µM [1] [%] | Dmax at 25 µM [%] | WIZ Amax [1] [%] | % degradation of WIZ (100 − Amax) [%] | SMILES | DC50 [nM] | Dmax [%] | remaining activity at 25 µM [%] |
| --- | --- | --- | --- | --- | --- | --- | --- |
| 69 | 31 | – | – | O=C1CCC(N2Cc3cc(O[C@@H]4CCCN(C5CC(F)(F)C5)C4)ccc3C2=O)C(=O)N1 (mixture of isomers) [Example 29, 3-(5-(((R)-1-(3,3-difluorocyclobutyl)piperidin-3-yl)oxy)-1-oxoisoindolin-2-yl)piperidine-2,6-dione] | 82 | – | – |
| – | – | – | – | CCN1C[C@H](C)C[C@@H](Oc2ccc3c(c2)CN(C2CCC(=O)NC2=O)C3=O)C1 (mixture of isomers) [Example 75-1, 3-(5-(((3R,5R)-1-ethyl-5-methylpiperidin-3-yl)oxy)-1-oxoisoindolin-2-yl)piperidine-2,6-dione] | 0.9 | 86.6 | 13.4 |
| – | – | – | – | CCN1C[C@H](O)C[C@@H](Oc2ccc3c(c2)CN(C2CCC(=O)NC2=O)C3=O)C1 (mixture of isomers) [Example 34, rac-3-(5-(((3R,5R)-1-Ethyl-5-hydroxypiperidin-3-yl)oxy)-1-oxoisoindolin-2-yl)piperidine-2,6-dione] | 15 | 80 | 20 |
| – | – | – | – | CCN1CC[C@H](C)[C@@H](Oc2ccc3c(c2)CN(C2CCC(=O)NC2=O)C3=O)C1 (mixture of isomers) [Example 35, rac-3-(5-(((3R,4S)-1-ethyl-4-methylpiperidin-3-yl)oxy)-1-oxoisoindolin-2-yl)piperidine-2,6-dione] | 26 | 31.9 | 68.1 |
| – | – | – | – | CCN1CCC[C@@H](Oc2ccc3c(c2)CN(C2CCC(=O)NC2=O)C3=O)[C@H]1C (mixture of isomers) [Example 44, rac-3-(5-(((2R,3R)-1-ethyl-2-methylpiperidin-3-yl)oxy)-1-oxoisoindolin-2-yl)piperidine-2,6-dione] | 60 | 15.8 | 84.2 |
| – | – | – | – | CCN1C[C@@H](C)C[C@@H](Oc2ccc3c(c2)CN(C2CCC(=O)NC2=O)C3=O)C1 (mixture of isomers) [Example 45, rac-3-(5-(((3R,5S)-1-ethyl-5-methylpiperidin-3-yl)oxy)-1-oxoisoindolin-2-yl)piperidine-2,6-dione] | 7.6 | 43.7 | 56.3 |
| – | – | – | – | CCN1CC[C@@H](C)[C@@H](Oc2ccc3c(c2)CN(C2CCC(=O)NC2=O)C3=O)C1 (mixture of isomers) [Example 46, rac-3-(5-(((3R,4R)-1-ethyl-4-methylpiperidin-3-yl)oxy)-1-oxoisoindolin-2-yl)piperidine-2,6-dione] | > 25000 | – | 101 |
| – | – | – | – | CCN1C[C@@H](O)C[C@@H](Oc2ccc3c(c2)CN(C2CCC(=O)NC2=O)C3=O)C1 (mixture of isomers) [Example 47, rac-3-(5-(((3R,5S)-1-ethyl-5-hydroxypiperidin-3-yl)oxy)-1-oxoisoindolin-2-yl)piperidine-2,6-dione] | 88 | 22.8 | 77.2 |
| – | – | – | – | CCN1C[C@H](C)C[C@@H](Oc2ccc3c(c2)CN(C2CCC(=O)NC2=O)C3=O)C1 (mixture of isomers) [Example 52, rac-3-(5-(((3R,5R)-1-Ethyl-5-methylpiperidin-3-yl)oxy)-1-oxoisoindolin-2-yl)piperidine-2,6-dione] | 5.5 | 76.2 | 23.8 |
| – | – | – | – | CCN1CCC2(CCC2)C(Oc2ccc3c(c2)CN(C2CCC(=O)NC2=O)C3=O)C1 (racemic) [Example 54, rac-3-(5-((7-ethyl-7-azaspiro[3.5]nonan-5-yl)oxy)-1-oxoisoindolin-2-yl)piperidine-2,6-dione] | > 25000 | – | 102 |
| – | – | – | – | CCN1CC2CC(Oc3ccc4c(c3)CN(C3CCC(=O)NC3=O)C4=O)C1C2 (racemic) [Example 62, rac-3-(5-((2-ethyl-2-azabicyclo[2.2.1]heptan-6-yl)oxy)-1-oxoisoindolin-2-yl)piperidine-2,6-dione] | 83 | 27.1 | 72.9 |
| 78.2 | 21.8 | – | – | CCN1C[C@@H]2C[C@@H]2[C@H](Oc2ccc3c(c2)CN(C2CCC(=O)NC2=O)C3=O)C1 (relative stereo) [Example 53, 3-(5-(((1R*,5S*,6S*)-3-ethyl-3-azabicyclo[4.1.0]heptan-5-yl)oxy)-1-oxoisoindolin-2-yl)piperidine-2,6-dione] | 71 | – | – |
| – | – | – | – | CCN1CC[C@H](F)[C@@H](Oc2ccc3c(c2)CN(C2CCC(=O)NC2=O)C3=O)C1 (relative stereo) [Example 55, 3-(5-(((3S*,4S*)-1-ethyl-4-fluoropiperidin-3-yl)oxy)-1-oxoisoindolin-2-yl)piperidine-2,6-dione] | 26 | 44.9 | 55.1 |
| – | – | – | – | CCN1CC[C@@H](F)[C@H](Oc2ccc3c(c2)CN(C2CCC(=O)NC2=O)C3=O)C1 (relative stereo) [Example 56, 3-(5-(((3R*,4R*)-1-ethyl-4-fluoropiperidin-3-yl)oxy)-1-oxoisoindolin-2-yl)piperidine-2,6-dione] | 950 | 16.2 | 83.8 |
| – | – | – | – | CCN1CC[C@@H](F)[C@@H](Oc2ccc3c(c2)CN(C2CCC(=O)NC2=O)C3=O)C1 (relative stereo) [Example 57, 3-(5-(((3S*,4R*)-1-ethyl-4-fluoropiperidin-3-yl)oxy)-1-oxoisoindolin-2-yl)piperidine-2,6-dione] | 170 | 16.9 | 83.1 |
| – | – | – | – | CCN1CC[C@H](F)[C@H](Oc2ccc3c(c2)CN(C2CCC(=O)NC2=O)C3=O)C1 (relative stereo) [Example 58, 3-(5-(((3R*,4S*)-1-ethyl-4-fluoropiperidin-3-yl)oxy)-1-oxoisoindolin-2-yl)piperidine-2,6-dione] | 4.9 | 60.7 | 39.3 |
| – | – | 61.38 | 38.62 | CCN1CC(Oc2ccc3c(c2)CN(C2CCC(=O)NC2=O)C3=O)CC2(CC2)C1 (single isomer, unassigned) [Example 18, 3-(5-((5-ethyl-5-azaspiro[2.5]octan-7-yl)oxy)-1-oxoisoindolin-2-yl)piperidine-2,6-dione] | 20 | – | – |
| – | – | 37.13 | 62.87 | CCN1CC(Oc2ccc3c(c2)CN(C2CCC(=O)NC2=O)C3=O)CC2(CC2)C1 (single isomer, unassigned) [Example 19, 3-(5-((5-ethyl-5-azaspiro[2.5]octan-7-yl)oxy)-1-oxoisoindolin-2-yl)piperidine-2,6-dione] | 12 | – | – |
| 75.9 | 24.1 | – | – | CCN1C[C@H]2C[C@H]2[C@H](Oc2ccc3c(c2)CN(C2CCC(=O)NC2=O)C3=O)C1 (single isomer, unassigned) [Example 20, 3-(5-(((1S*,5S*,6R*)-3-ethyl-3-azabicyclo[4.1.0]heptan-5-yl)oxy)-1-oxoisoindolin-2-yl)piperidine-2,6-dione] | 3750 | – | – |
| 25.7 | 74.3 | – | – | CCN1C[C@@H]2C[C@@H]2[C@@H](Oc2ccc3c(c2)CN(C2CCC(=O)NC2=O)C3=O)C1 (single isomer, unassigned) [Example 21, 3-(5-(((1R*,5R*,6S*)-3-ethyl-3-azabicyclo[4.1.0]heptan-5-yl)oxy)-1-oxoisoindolin-2-yl)piperidine-2,6-dione] | 3.5 | – | – |
| 75.7 | 24.4 | – | – | CCN1C[C@H]2C[C@H]2[C@@H](Oc2ccc3c(c2)CN(C2CCC(=O)NC2=O)C3=O)C1 (single isomer, unassigned) [Example 22, 3-(5-(((1S*,5R*,6R*)-3-ethyl-3-azabicyclo[4.1.0]heptan-5-yl)oxy)-1-oxoisoindolin-2-yl)piperidine-2,6-dione] | 83 | – | – |
| – | – | – | – | CCN1CCC(C)(C)C(Oc2ccc3c(c2)CN(C2CCC(=O)NC2=O)C3=O)C1 (single isomer, unassigned) [Example 48, 3-(5-((1-ethyl-4,4-dimethylpiperidin-3-yl)oxy)-1-oxoisoindolin-2-yl)piperidine-2,6-dione] | > 25000 | – | 102 |
